Series [1] concerns the target T1, Taq polymerase (Thermus aquaticus, UniProt P19821). Briefly: Half-life of Taq polymerase activity at 95° C. in surfactant solutions (3H-TTP incorporation). The class given is biochemical. As to conditions: incubated at 95° C.; for estimated half-life of Taq polymerase: Example 2: 0.1% surfactant, control without surfactant less than 5 min; for Taq polymerase half life: Example 7: 0.005% surfactant, 2.5 U/100 μl, estimated graphically. As for the experimental part: A 10× buffer was made with each of these surfactant solutions. The 10× buffer for each consisted of: 500 mM KCl, 100 mM Tris-HCl pH 9.0 (at 25° C.), 1% surfactant (made by a 1:10 dilution of the detergent solution described above into the buffer during formulation). As described in Example 1, the Taq polymerase used in these experiments was purified without exposure to any detergents. Each of these buffer solutions was used to formulate a Taq-surfactant solution as follows: […]
A control solution was made as indicated above, except that the 32 μl of 10× buffer without surfactant was used. The solutions were incubated at 95° C. and samples (10 μl) were removed and placed in a fresh tube, and kept on ice at 0, 5, 10, 30, 60, 90, and 120 min. The samples were then assayed for Taq polymerase activity.
Taq polymerase activity was determined by measuring the amount of tritiated deoxynucleotide base a sample of the enzyme could incorporate. The assay was performed as follows. Solutions of dATP, dCTP, dGTP and dTTP (Promega U120, U122, U121 and U123, respectively) were diluted to 2 mM final concentration (originally at 100 mM) using nanopure water. Tritiated nucleotide ^3 H-TTP was obtained from Amersham (TRK424, 250 μCi/250 μl). The template for incorporation was calf thymus DNA (Sigma, D-1501) dissolved in 10 mM Tris-HCl pH 7.3, 5 mM MgCl2 to a final concentration of 2.5 mg/ml. Prior to use, the DNA was treated with 1 μl of a 1:10 dilution of RQ1 DNAse (Promega M610) (dilution made using 10 mM Tris-HCl, 5 mM MgCl2) and incubated for 10 min at 37° C. followed by 30 min at 68° C. This was done to "activate" the DNA for incorporation. A 10× Taq assay buffer was made containing 500 mM Tris-HCl (pH 9.0 at 25° C.), 500 mM NaCl, and 100 mM MgCl2.
Time point samples (10 μl) were added to 40 μl of the reaction mix and then incubated at 74° C. for 10 min. After incubation, the solution was diluted with 500 μl of ice cold 10% TCA. The TCA solution was filtered through a GF/A filter. The tube was washed three times with 1 ml of 5% TCA and the wash was then filtered onto the same filter. The filter was then rinsed 3 times with 5% TCA and then rinsed with acetone. The filters were dried 10 min. with a heat lamp and then the radioactivity was counted. The percent of activity present at any time point was determined by dividing the net counts for the sample at that time point by the net counts of the 0 min sample for that enzyme solution and then multiplying by 100%. The percent activity of the solution was plotted versus time. The points were then connected by a smooth curve and the estimated half-life of the enzyme under the conditions chosen was estimated based on the point where the line crossed 50% activity.
In this example, the ability of ethoxylated amines to stabilize thermostable proteins at high temperatures was examined. Solutions of detergent-free Taq polymerase (2.5 U/100 μl of solution) containing 0.005% Tomah E-18-15, Tomah E-18-5, Tween 20, NP-40, and TRITON X-100 were produced as in Example 2. These solutions were incubated at 95° C. and samples were removed at 0, 10, 30, 60 and 120 min and analyzed as in Example 2. The half lives of the enzyme in the presence of these surfactants was estimated graphically. The solutions containing Tomah E-18-5, TRITON X-100 and NP-40 all had Taq polymerase half lives of about 8 min.

The conditions of series [2]: McCutcheon's Volume 1: Emulsifiers and Detergents North American Edition, 1996; cited from earlier work.
The target of series [3] is T1, Taq polymerase. As to the kind of experiment: PCR based assay for Taq polymerase stabilization by detergents (1.5 kb amplification product on agarose gel). The class given is biochemical. As to conditions: 2 μl Taq polymerase (10 U/μl). The method, then:
This Example describes the development of a PCR based assay for polymerase stabilization by detergents (i.e., surfactants). Conditions were defined in which the polymerase was incapable of producing a detectable amplification product in the absence of detergent, but could produce detectable amplification in the presence of a stabilizing detergent, such as Tween 20.
The following reaction mixture was assembled:
pGEM 1 uc (Part # E1541) and 25 mM MgCl2 (Part # M1902) were obtained from Promega Corp, Madison Wis. The 10× Taq buffer formulation was: 500 mM KCl, 100 mM Tris-Cl (pH 9.0 at 25° C.). The 10× Taq buffer was made by dissolving KCl and Trizma in nanopure water and adjusting the pH with concentrated hydrochloric acid. Nanopure water was made by autoclaving deionized water treated by a NANOPURE water system. The 2 mM dNTP mix was made by mixing 100 mM stocks of dATP, dCTP, dGTP, and dTTP (Promega U120, U122, U121 and U123, respectively) with nanopure water to produce a solution containing a 2 mM concentration of each nucleotide. The DNA sequences of the primers used were […] (SEQ ID NO: 1) and […] (SEQ ID NO 2).
One hundred microliters of the reaction mixture were placed into a 0.2 ml tube and 50 μl placed in five additional tubes. […]
The reaction products were analyzed by agarose gel electrophoresis. […]

Results on five molecules are retold here after patent US6242235A, “Polymerase stabilization by polyethoxylated amine surfactants” (priority 1999, dated 2001).

T1 sequence (P19821 whole entry): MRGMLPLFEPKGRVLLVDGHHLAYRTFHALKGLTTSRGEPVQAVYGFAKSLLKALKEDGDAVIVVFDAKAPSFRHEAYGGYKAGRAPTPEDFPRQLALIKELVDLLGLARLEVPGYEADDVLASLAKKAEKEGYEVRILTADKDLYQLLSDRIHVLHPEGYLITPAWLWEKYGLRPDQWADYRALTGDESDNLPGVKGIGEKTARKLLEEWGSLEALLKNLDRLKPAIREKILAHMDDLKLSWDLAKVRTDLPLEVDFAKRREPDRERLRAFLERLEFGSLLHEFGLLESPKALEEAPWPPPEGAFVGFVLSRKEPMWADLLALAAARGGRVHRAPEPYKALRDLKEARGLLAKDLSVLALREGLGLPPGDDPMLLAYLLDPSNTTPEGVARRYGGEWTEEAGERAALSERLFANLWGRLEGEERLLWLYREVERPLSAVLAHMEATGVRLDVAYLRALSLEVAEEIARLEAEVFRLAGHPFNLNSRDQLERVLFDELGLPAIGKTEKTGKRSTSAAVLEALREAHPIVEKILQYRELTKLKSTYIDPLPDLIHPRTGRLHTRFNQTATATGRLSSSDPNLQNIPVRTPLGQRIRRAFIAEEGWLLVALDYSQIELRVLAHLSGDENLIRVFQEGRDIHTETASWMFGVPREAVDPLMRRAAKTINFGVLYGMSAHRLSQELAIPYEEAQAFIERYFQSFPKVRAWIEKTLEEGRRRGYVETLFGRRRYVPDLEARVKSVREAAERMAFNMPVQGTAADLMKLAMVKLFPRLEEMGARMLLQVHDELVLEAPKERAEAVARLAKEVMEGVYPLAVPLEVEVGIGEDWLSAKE

With `C[C@H](CCC(=O)NCCC[N+](C)(C)CCCS(=O)(=O)[O-])[C@H]1CC[C@H]2[C@@H]3[C@H](O)C[C@@H]4C[C@H](O)CC[C@]4(C)[C@H]3C[C@H](O)[C@]12C` [Chaps], in series [1], the “estimated half-life of Taq polymerase” value is “approximately 5 min”.

Take ethoxylated alky phenol [NP-40]: in series [1], the “Taq polymerase half life” value is listed as “about 8 min”.

In the case of `C[C@H](CCC(=O)NCCC[N+](C)(C)CC(O)CS(=O)(=O)[O-])[C@H]1CC[C@H]2[C@@H]3[C@H](O)C[C@@H]4C[C@H](O)CC[C@]4(C)[C@H]3C[C@H](O)[C@]12C` (some centres unmarked) [Chapso], the “estimated half-life of Taq polymerase” value in series [1] was “approximately 5 min”.

Consider TRITON X-100, for which the “HLB Index” value in series [2] is 13.5. In series [1], the “estimated half-life of Taq polymerase” value is recorded as “approximately 40 min” and the “Taq polymerase half life” value is “about 8 min”.

Take `CCCCCCCCCC[N+](C)(C)CCCS(=O)(=O)[O-]` [N-decyl-n,n-dimethyl-3-ammonium-1-propanesulfonate]: the “1.5 kb DNA band” value is listed as “failed to produce a visible 1.5 kb DNA fragment” in series [3] (Example 3, second set: 5 μl of 10% surfactant in 95 μl mix, no band without surfactant) and “band intermediate in intensity” in series [3] (Example 3: 1 μl of 10% surfactant in 99 μl mix, weaker but visible band without surfactant).
